Measurements taken from patent US12077503B2, “Substituted cyclic amides and their use as herbicides” (FMC CORPORATION, priority 2015, dated 2024).
Where two headings read alike, the source gives them in different places.

Tests used:
Format in all cases: in vivo
[1] = tested on: Kochia (Kochia scoparia); test: Test A preemergence; conditions: Bassia scoparia, pre-emergence, 240 h; for pest or weed control at 125 g/ha: 125 g ai/ha; for pest or weed control at 500 g/ha: 500 g ai/ha
Method in brief: (§1)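 Greenhouse, ~10 d after spray; visual injury vs untreated controls, 0 = no effect, 100 = complete control. Preemergence: directed soil spray over planted seeds. Postemergence: plants 2–10 cm, 1–2 leaf stage. Loam/sand blend. Compound in non-phytotoxic solvent with surfactant.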

[2] = tested on: barnyardgrass (Echinochloa crus-galli); test: Test A preemergence; conditions: Echinochloa crus-galli, pre-emergence, 240 h; for pest or weed control at 125 g/ha: 125 g ai/ha, 0 to 100 scale where 0 is no effect and 100 is complete control; for pest or weed control at 500 g/ha: 500 g ai/ha
Method in brief: as §1

[3] = tested on: giant foxtail (Setaria faberii); test: Test A preemergence; conditions: Setaria faberi, pre-emergence, 240 h; for pest or weed control at 125 g/ha: 125 g ai/ha; for pest or weed control at 500 g/ha: 500 g ai/ha
Method in brief: as §1

[4] = tested on: pigweed (Amaranthus retroflexus); test: Test A preemergence; conditions: Amaranthus retroflexus, pre-emergence, 240 h; for pest or weed control at 125 g/ha: 125 g ai/ha; for pest or weed control at 500 g/ha: 500 g ai/ha
[5] = tested on: ragweed (common ragweed, Ambrosia elatior); test: Test A preemergence; conditions: Ambrosia artemisiifolia, pre-emergence, 240 h; for pest or weed control at 125 g/ha: 125 g ai/ha; for pest or weed control at 500 g/ha: 500 g ai/ha
Method in brief: as §1

[6] = tested on: ryegrass, Italian (Italian ryegrass, Lolium multiflorum); test: Test A preemergence; conditions: Lolium multiflorum, pre-emergence, 240 h; for pest or weed control at 125 g/ha: 125 g ai/ha; for pest or weed control at 500 g/ha: 500 g ai/ha
Method in brief: as §1

[7] = tested on: blackgrass (Alopecurus myosuroides); test: Test A postemergence; conditions: Alopecurus myosuroides, post-emergence, 240 h, postemergence; for pest or weed control at 125 g/ha: 125 g ai/ha
Method in brief: as §1

[8] = tested on: corn (Zea mays); test: Test A postemergence; conditions: Zea mays, post-emergence, 240 h, postemergence; for plant injury at 125 g/ha: 125 g ai/ha
Method in brief: as §1

[9] = tested on: pigweed (Amaranthus retroflexus); test: Test A postemergence; conditions: Amaranthus retroflexus, post-emergence, 240 h, postemergence; for pest or weed control at 125 g/ha: 125 g ai/ha
Method in brief: as §1

[10] = tested on: ragweed (common ragweed, Ambrosia elatior); test: Test A postemergence; conditions: Ambrosia artemisiifolia, post-emergence, 240 h, postemergence; for pest or weed control at 125 g/ha: 125 g ai/ha
Method in brief: as §1

[11] = tested on: ryegrass, Italian (Italian ryegrass, Lolium multiflorum); test: Test A postemergence; conditions: Lolium multiflorum, post-emergence, 240 h, postemergence; for pest or weed control at 125 g/ha: 125 g ai/ha
Method in brief: as §1

[12] = tested on: barnyardgrass (Echinochloa crus-galli); test: Test B flooded paddy test; conditions: Echinochloa crus-galli, 250 g ai/ha, Flood, read-out: Barnyardgrass plant response rating
Method in brief: (§2)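 Flooding to 3 cm over soil accompanied treatment, which consisted of adding compound to the standing water around 2-leaf plants; depth was then maintained. Visual assessment versus controls followed at 13 to 15 d (scale 0–100, 0 meaning no effect).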

[13] = tested on: ducksalad (Heteranthera limosa); test: Test B flooded paddy test; conditions: Heteranthera limosa, 250 g ai/ha, Flood, read-out: Ducksalad plant response rating
Method in brief: as §2

[14] = tested on: rice (Oryra sativa); test: Test B flooded paddy test; conditions: Oryza sativa, 250 g ai/ha, Flood, read-out: Rice plant response rating
Method in brief: as §2

[15] = tested on: sedge, umbrella (small-flower umbrella sedge, Cyperus difformis); test: Test B flooded paddy test; conditions: Cyperus difformis, 250 g ai/ha, Flood, read-out: Sedge, Umbrella plant response rating
Method in brief: as §2

[16] = preemergence, 0 to 100 scale where 0 is no effect and 100 is complete control, read-out: Kochia plant response rating
[17] = preemergence, 0 to 100 scale where 0 is no effect and 100 is complete control, read-out: Foxtail, Giant plant response rating
[18] = preemergence, 0 to 100 scale where 0 is no effect and 100 is complete control, read-out: Pigweed plant response rating
[19] = preemergence, 0 to 100 scale where 0 is no effect and 100 is complete control, read-out: Ragweed plant response rating
[20] = preemergence, 0 to 100 scale where 0 is no effect and 100 is complete control, read-out: Ryegrass, Italian plant response rating
[21] = 0 to 100 scale where 0 is no effect and 100 is complete control
[22] = scale of 0 to 100 where 0 is no effect and 100 is complete control

CN1C[C@H](c2csc3ccccc23)[C@@H](C(=O)Nc2cccc(F)c2F)C1=O [Compound 1115]
pest or weed control at 125 g/ha ([1]; preemergence, 0 to 100 scale where 0 is no effect and 100 is complete control, approx. 10 d, read-out: Kochia plant response rating): 70% | pest or weed control at 500 g/ha [1, 16]: 70% | pest or weed control at 125 g/ha ([2]; preemergence, approx. 10 d, read-out: Barnyardgrass plant response rating): 90% | pest or weed control at 500 g/ha ([2]; preemergence, visual injury rating about 10 d after treatment, 0 to 100 scale (0 no effect, 100 complete control), read-out: Barnyardgrass plant response rating): 90% | pest or weed control at 125 g/ha ([3]; preemergence, 0 to 100 scale where 0 is no effect and 100 is complete control, approx. 10 d, read-out: Foxtail, Giant plant response rating): 90% | pest or weed control at 500 g/ha [3, 17]: 90% | pest or weed control at 125 g/ha ([4]; preemergence, 0 to 100 scale where 0 is no effect and 100 is complete control, approx. 10 d, read-out: Pigweed plant response rating): 0% | pest or weed control at 500 g/ha [4, 18]: 40% | pest or weed control at 125 g/ha ([5]; preemergence, 0 to 100 scale where 0 is no effect and 100 is complete control, approx. 10 d, read-out: Ragweed plant response rating): 0% | pest or weed control at 500 g/ha [5, 19]: 20% | pest or weed control at 125 g/ha ([6]; preemergence, 0 to 100 scale where 0 is no effect and 100 is complete control, approx. 10 d, read-out: Ryegrass, Italian plant response rating): 50% | pest or weed control at 500 g/ha [6, 20]: 60% | pest or weed control at 125 g/ha ([7]; visual injury on 0 to 100 scale (0 no effect, 100 complete control), approx. 10 d, read-out: Blackgrass plant response rating): 30% | pest or weed control at 500 g/ha ([7]; 500 g ai/ha, 0 to 100 scale, 0 is no effect, 100 is complete control, read-out: Blackgrass plant response rating): 40% | plant injury at 125 g/ha ([8]; visual injury on 0 to 100 scale (0 no effect, 100 complete control), approx. 10 d, read-out: Corn plant response rating): 40% | plant injury at 500 g/ha ([8]; 500 g ai/ha, 0 to 100 scale, 0 is no effect, 100 is complete control, read-out: Corn plant response rating): 50% | pest or weed control at 125 g/ha ([9]; visual injury on 0 to 100 scale (0 no effect, 100 complete control), approx. 10 d, read-out: Pigweed plant response rating): 20% | pest or weed control at 500 g/ha ([9]; 500 g ai/ha, 0 to 100 scale, 0 is no effect, 100 is complete control, read-out: Pigweed plant response rating): 20% | pest or weed control at 125 g/ha ([10]; visual injury on 0 to 100 scale (0 no effect, 100 complete control), approx. 10 d, read-out: Ragweed plant response rating): 0% | pest or weed control at 500 g/ha ([10]; 500 g ai/ha, 0 to 100 scale, 0 is no effect, 100 is complete control, read-out: Ragweed plant response rating): 30% | pest or weed control at 125 g/ha ([11]; visual injury on 0 to 100 scale (0 no effect, 100 complete control), approx. 10 d, read-out: Ryegrass, Italian plant response rating): 20% | pest or weed control at 500 g/ha ([11]; 500 g ai/ha, 0 to 100 scale, 0 is no effect, 100 is complete control, read-out: Ryegrass, Italian plant response rating): 40% | pest or weed control at 250 g/ha [12, 21]: 45% | pest or weed control at 250 g/ha [13, 21]: 90% | pest or weed control at 250 g/ha [14, 21]: 30% | pest or weed control at 250 g/ha [15, 21]: 0%

CN1C[C@H](c2cc(F)cc(F)c2)[C@@H](C(=O)Nc2ccccc2[S@@+](C)[O-])C1=O [Compound 872]
pest or weed control at 125 g/ha [1, 16]: 0% | pest or weed control at 500 g/ha ([1]; Preemergence, visual injury vs untreated controls after approximately 10 d, read-out: Kochia plant response rating (0 to 100 scale where 0 is no effect and 100 is complete control)): 80% | pest or weed control at 125 g/ha ([2]; preemergence, read-out: Barnyardgrass plant response rating): 90% | pest or weed control at 500 g/ha ([2]; Preemergence, visual injury vs untreated controls after approximately 10 d, read-out: Barnyardgrass plant response rating (0 to 100 scale where 0 is no effect and 100 is complete control)): 100% | pest or weed control at 125 g/ha [3, 17]: 90% | pest or weed control at 500 g/ha ([3]; Preemergence, visual injury vs untreated controls after approximately 10 d, read-out: Foxtail, Giant plant response rating (0 to 100 scale where 0 is no effect and 100 is complete control)): 90% | pest or weed control at 125 g/ha [4, 18]: 0% | pest or weed control at 500 g/ha ([4]; Preemergence, visual injury vs untreated controls after approximately 10 d, read-out: Pigweed plant response rating (0 to 100 scale where 0 is no effect and 100 is complete control)): 60% | pest or weed control at 125 g/ha [5, 19]: 60% | pest or weed control at 500 g/ha ([5]; Preemergence, visual injury vs untreated controls after approximately 10 d, read-out: Ragweed plant response rating (0 to 100 scale where 0 is no effect and 100 is complete control)): 100% | pest or weed control at 125 g/ha [6, 20]: 0% | pest or weed control at 500 g/ha ([6]; Preemergence, visual injury vs untreated controls after approximately 10 d, read-out: Ryegrass, Italian plant response rating (0 to 100 scale where 0 is no effect and 100 is complete control)): 40% | pest or weed control at 125 g/ha ([7]; visual injury rating after approximately 10 d, read-out: Blackgrass plant response rating (0 to 100 scale, 0 no effect, 100 complete control)): 20% | plant injury at 125 g/ha ([8]; visual injury rating after approximately 10 d, read-out: Corn plant response rating (0 to 100 scale, 0 no effect, 100 complete control)): 30% | pest or weed control at 125 g/ha ([9]; visual injury rating after approximately 10 d, read-out: Pigweed plant response rating (0 to 100 scale, 0 no effect, 100 complete control)): 30% | pest or weed control at 125 g/ha ([10]; visual injury rating after approximately 10 d, read-out: Ragweed plant response rating (0 to 100 scale, 0 no effect, 100 complete control)): 0% | pest or weed control at 125 g/ha ([11]; visual injury rating after approximately 10 d, read-out: Ryegrass, Italian plant response rating (0 to 100 scale, 0 no effect, 100 complete control)): 0% | pest or weed control at 250 g/ha [12, 22]: 0% | pest or weed control at 250 g/ha [13, 22]: 85% | pest or weed control at 250 g/ha [14, 22]: 0% | pest or weed control at 250 g/ha [15, 22]: 40%
